Tested on: anticorps anti-nef
Assay: ELISA for detection of anti-nef antibodies on coated peptides or nef
Format: binding, humain
Settings: for nombre de sérums anti-nef positifs ayant réagi: out of 31 anti-nef positive sera; for intensité de l'immunoréactivité (OD), Serum 1: Serum 1, anti-nef positive; for intensité de l'immunoréactivité (OD), Serum 1 / intensité de l'immunoréactivité (OD), Serum 2 / intensité de l'immunoréactivité (OD), Serum 3 / intensité de l'immunoréactivité (OD), Serum 4 / intensité de l'immunoréactivité (OD), Serum 5 / intensité de l'immunoréactivité (OD), Serum 6 / intensité de l'immunoréactivité (OD), Serum 7 / intensité de l'immunoréactivité (OD), Serum 8 / intensité de l'immunoréactivité (OD), Serum 9 / intensité de l'immunoréactivité (OD), Serum 10 / intensité de l'immunoréactivité (OD), Serum 11 / intensité de l'immunoréactivité (OD), Serum 12 / intensité de l'immunoréactivité (OD), Serum 13 / intensité de l'immunoréactivité (OD), Serum 14 / intensité de l'immunoréactivité (OD), Serum 15 / intensité de l'immunoréactivité (OD), Serum 16 / intensité de l'immunoréactivité (OD), Serum 17 / intensité de l'immunoréactivité (OD), Serum 18 / intensité de l'immunoréactivité (OD), Serum 19 / intensité de l'immunoréactivité (OD), Serum 20 / intensité de l'immunoréactivité (OD), Serum 21 / intensité de l'immunoréactivité (OD), Serum 22 / intensité de l'immunoréactivité (OD), Serum 23 / intensité de l'immunoréactivité (OD), Serum 24 / intensité de l'immunoréactivité (OD), Serum 25 / intensité de l'immunoréactivité (OD), Serum 26 / intensité de l'immunoréactivité (OD), Serum 27 / intensité de l'immunoréactivité (OD), Serum 28 / intensité de l'immunoréactivité (OD), Serum 29 / intensité de l'immunoréactivité (OD), Serum 30 / intensité de l'immunoréactivité (OD), Serum 31 / intensité de l'immunoréactivité (OD), Serum 32 / intensité de l'immunoréactivité (OD), Serum 33: 500 ng coated per well; for intensité de l'immunoréactivité (OD), Serum 2: Serum 2, anti-nef positive; for intensité de l'immunoréactivité (OD), Serum 3: Serum 3, anti-nef positive; for intensité de l'immunoréactivité (OD), Serum 4: Serum 4, anti-nef positive; for intensité de l'immunoréactivité (OD), Serum 5: Serum 5, anti-nef positive; for intensité de l'immunoréactivité (OD), Serum 6: Serum 6, anti-nef positive; for intensité de l'immunoréactivité (OD), Serum 7: Serum 7, anti-nef positive; for intensité de l'immunoréactivité (OD), Serum 8: Serum 8, anti-nef positive; for intensité de l'immunoréactivité (OD), Serum 9: Serum 9, anti-nef positive; for intensité de l'immunoréactivité (OD), Serum 10: Serum 10, anti-nef positive; for intensité de l'immunoréactivité (OD), Serum 11: Serum 11, anti-nef positive; for intensité de l'immunoréactivité (OD), Serum 12: Serum 12, anti-nef positive; for intensité de l'immunoréactivité (OD), Serum 13: Serum 13, anti-nef positive; for intensité de l'immunoréactivité (OD), Serum 14: Serum 14, anti-nef positive; for intensité de l'immunoréactivité (OD), Serum 15: Serum 15, anti-nef positive; for intensité de l'immunoréactivité (OD), Serum 16: Serum 16, anti-nef positive; for intensité de l'immunoréactivité (OD), Serum 17: Serum 17, anti-nef positive; for intensité de l'immunoréactivité (OD), Serum 18: Serum 18, anti-nef positive; for intensité de l'immunoréactivité (OD), Serum 19: Serum 19, anti-nef positive; for intensité de l'immunoréactivité (OD), Serum 20: Serum 20, anti-nef positive; for intensité de l'immunoréactivité (OD), Serum 21: Serum 21, anti-nef positive; for intensité de l'immunoréactivité (OD), Serum 22: Serum 22, anti-nef positive; for intensité de l'immunoréactivité (OD), Serum 23: Serum 23, anti-nef positive; for intensité de l'immunoréactivité (OD), Serum 24: Serum 24, anti-nef positive; for intensité de l'immunoréactivité (OD), Serum 25: Serum 25, anti-nef positive; for intensité de l'immunoréactivité (OD), Serum 26: Serum 26, anti-nef positive; for intensité de l'immunoréactivité (OD), Serum 27: Serum 27, anti-nef positive; for intensité de l'immunoréactivité (OD), Serum 28: Serum 28, anti-nef positive; for intensité de l'immunoréactivité (OD), Serum 29: Serum 29, anti-nef positive; for intensité de l'immunoréactivité (OD), Serum 30: Serum 30, anti-nef positive; for intensité de l'immunoréactivité (OD), Serum 31: Serum 31, anti-nef positive; for intensité de l'immunoréactivité (OD), Serum 32: Serum 32, anti-nef negative control serum; for intensité de l'immunoréactivité (OD), Serum 33: Serum 33, anti-nef negative control serum
Procedure: Des plaques de microtitration à 96 puits ont été recouvertes une nuit avec 500 ng de protéine nef bactérienne, à 37°C ou avec 500 ng de peptides synthétiques par puits dans 50µl de PBS à pH 7,4. Après saturation avec 400 µl de PBS pH 7,4, contenant 5% de caséine, durant 1 heure à 37°C et lavage avec PBS à pH 7,4, 0,5% de BSA, 0,01% tween, 50 µl de sérums à différentes dilutions ont été ajoutés pendant 2 heures à 37°C. Après le rinçage, 50µl de complexes d'IgG de souris anti-humaine-(H + L)-peroxydase 1:1000 ont été incubés pendant 1 heure à 37°C. Après un nouveau rinçage, 100µl de OPD ont été ajoutés pendant 30mn à température ambiante dans l'obscurité. La réaction de l'enzyme a été arrêtée par addition de 50µl d'acide sulfurique 4N et la densité optique des plaques a été lue à 492 nm/620 nm. Les plaques recouvertes avec la caséine ont été utilisées comme contrôle négatif.
En vue d'étudier la possibilité d'utiliser des peptides synthétiques en tant qu'antigènes pour la détection d'anticorps anti-nef chez des patients infectés par HIV, 8 peptides synthétiques couvrant la totalité de la séquence de la protéine nef de HIV-1 (figure 4) ont été utilisés dans un test ELISA avec 31 sérums anti-nef positifs et 2 sérums anti-nef négatifs utilisés comme contrôle. Les recombinants nef ont été utilisés comme contrôle positif dans les tests ELISA et la caséine a été utilisée comme contrôle négatif. Les résultats de ces expériences sont donnés dans le tableau 4 qui illustre l'essai suivant: Essai ELISA sur 31 sérums anti-nef-positifs et 2 sérums anti-nef- négatifs, soit pré-recouverts avec des peptides synthétiques (PF 11 à PF 18), soit en utilisant nef, la caséine ou un mélange de peptides PF 12 et PF 17. Les sérums ont été sélectionnés au hasard parmi des sérums anti-nef positifs et anti-nefs négatifs testés par la méthode RIA en utilisant ¹²⁵I nef. L'intensité de l'immunoradioactivité est notée "-" pour une densité optique (OD) inférieure à 0,2; "+" pour OD = 0,2 à 0,4; "++" pour OD = 0,4 à 0,8 et "+++" pour OD = 0,8 à 2,0.

Row | Sequence | nombre de sérums anti-nef positifs ayant réagi (ELISA) | intensité de l'immunoréactivité (OD), Serum 1 | intensité de l'immunoréactivité (OD), Serum 2 | intensité de l'immunoréactivité (OD), Serum 3 | intensité de l'immunoréactivité (OD), Serum 4 | intensité de l'immunoréactivité (OD), Serum 5 | intensité de l'immunoréactivité (OD), Serum 6 | intensité de l'immunoréactivité (OD), Serum 7 | intensité de l'immunoréactivité (OD), Serum 8 | intensité de l'immunoréactivité (OD), Serum 9 | intensité de l'immunoréactivité (OD), Serum 10 | intensité de l'immunoréactivité (OD), Serum 11 | intensité de l'immunoréactivité (OD), Serum 12 | intensité de l'immunoréactivité (OD), Serum 13 | intensité de l'immunoréactivité (OD), Serum 14 | intensité de l'immunoréactivité (OD), Serum 15 | intensité de l'immunoréactivité (OD), Serum 16 | intensité de l'immunoréactivité (OD), Serum 17 | intensité de l'immunoréactivité (OD), Serum 18 | intensité de l'immunoréactivité (OD), Serum 19 | also measured
1 | XCGYFPDWQNYTPGPGVRYPLTFGWCYKLVPVEPDKVEEANKGENTSLL HPVZ [PF15, protéine F HIV-1, séquence 118-167] | 4 | - (pour une densité optique (OD) inférieure à 0,2) | - (pour une densité optique (OD) inférieure à 0,2) | - (pour une densité optique (OD) inférieure à 0,2) | - (pour une densité optique (OD) inférieure à 0,2) | + (pour OD = 0,2 à 0,4) | + (pour OD = 0,2 à 0,4) | - (pour une densité optique (OD) inférieure à 0,2) | - (pour une densité optique (OD) inférieure à 0,2) | - (pour une densité optique (OD) inférieure à 0,2) | - (pour une densité optique (OD) inférieure à 0,2) | - (pour une densité optique (OD) inférieure à 0,2) | - (pour une densité optique (OD) inférieure à 0,2) | - (pour une densité optique (OD) inférieure à 0,2) | - (pour une densité optique (OD) inférieure à 0,2) | - (pour une densité optique (OD) inférieure à 0,2) | - (pour une densité optique (OD) inférieure à 0,2) | - (pour une densité optique (OD) inférieure à 0,2) | - (pour une densité optique (OD) inférieure à 0,2) | ++ (pour OD = 0,4 à 0,8) | intensité de l'immunoréactivité (OD), Serum 20: - (pour une densité optique (OD) inférieure à 0,2); intensité de l'immunoréactivité (OD), Serum 21: - (pour une densité optique (OD) inférieure à 0,2); intensité de l'immunoréactivité (OD), Serum 22: ++ (pour OD = 0,4 à 0,8); intensité de l'immunoréactivité (OD), Serum 23: - (pour une densité optique (OD) inférieure à 0,2); intensité de l'immunoréactivité (OD), Serum 24: - (pour une densité optique (OD) inférieure à 0,2); intensité de l'immunoréactivité (OD), Serum 25: - (pour une densité optique (OD) inférieure à 0,2); intensité de l'immunoréactivité (OD), Serum 26: - (pour une densité optique (OD) inférieure à 0,2); intensité de l'immunoréactivité (OD), Serum 27: - (pour une densité optique (OD) inférieure à 0,2); intensité de l'immunoréactivité (OD), Serum 28: - (pour une densité optique (OD) inférieure à 0,2); intensité de l'immunoréactivité (OD), Serum 29: - (pour une densité optique (OD) inférieure à 0,2); intensité de l'immunoréactivité (OD), Serum 30: - (pour une densité optique (OD) inférieure à 0,2); intensité de l'immunoréactivité (OD), Serum 31: - (pour une densité optique (OD) inférieure à 0,2); intensité de l'immunoréactivité (OD), Serum 32: - (pour une densité optique (OD) inférieure à 0,2); intensité de l'immunoréactivité (OD), Serum 33: - (pour une densité optique (OD) inférieure à 0,2)
2 | XCKGGLEGLIHSQRRQDILDLWIYHTQGYFPDZ [PF18] | 10 | - (pour une densité optique (OD) inférieure à 0,2) | - (pour une densité optique (OD) inférieure à 0,2) | - (pour une densité optique (OD) inférieure à 0,2) | - (pour une densité optique (OD) inférieure à 0,2) | + (pour OD = 0,2 à 0,4) | + (pour OD = 0,2 à 0,4) | - (pour une densité optique (OD) inférieure à 0,2) | - (pour une densité optique (OD) inférieure à 0,2) | - (pour une densité optique (OD) inférieure à 0,2) | - (pour une densité optique (OD) inférieure à 0,2) | - (pour une densité optique (OD) inférieure à 0,2) | - (pour une densité optique (OD) inférieure à 0,2) | - (pour une densité optique (OD) inférieure à 0,2) | - (pour une densité optique (OD) inférieure à 0,2) | - (pour une densité optique (OD) inférieure à 0,2) | - (pour une densité optique (OD) inférieure à 0,2) | - (pour une densité optique (OD) inférieure à 0,2) | ++ (pour OD = 0,4 à 0,8) | + (pour OD = 0,2 à 0,4) | part des sérums anti-nef positifs avec immunoréactivité significative (ELISA, 31 anti-nef positive sera): 1/3; intensité de l'immunoréactivité (OD), Serum 20: + (pour OD = 0,2 à 0,4); intensité de l'immunoréactivité (OD), Serum 21: +++ (pour OD = 0,8 à 2,0); intensité de l'immunoréactivité (OD), Serum 22: +++ (pour OD = 0,8 à 2,0); intensité de l'immunoréactivité (OD), Serum 23: - (pour une densité optique (OD) inférieure à 0,2); intensité de l'immunoréactivité (OD), Serum 24: ++ (pour OD = 0,4 à 0,8); intensité de l'immunoréactivité (OD), Serum 25: + (pour OD = 0,2 à 0,4); intensité de l'immunoréactivité (OD), Serum 26: - (pour une densité optique (OD) inférieure à 0,2); intensité de l'immunoréactivité (OD), Serum 27: - (pour une densité optique (OD) inférieure à 0,2); intensité de l'immunoréactivité (OD), Serum 28: - (pour une densité optique (OD) inférieure à 0,2); intensité de l'immunoréactivité (OD), Serum 29: - (pour une densité optique (OD) inférieure à 0,2); intensité de l'immunoréactivité (OD), Serum 30: +++ (pour OD = 0,8 à 2,0); intensité de l'immunoréactivité (OD), Serum 31: - (pour une densité optique (OD) inférieure à 0,2); intensité de l'immunoréactivité (OD), Serum 32: - (pour une densité optique (OD) inférieure à 0,2); intensité de l'immunoréactivité (OD), Serum 33: - (pour une densité optique (OD) inférieure à 0,2)

Reference: patent EP0349354A1, “Peptides PF10 to PF19 from a retro virus HIV, method for the synthesis of these peptides and their use, particularly in diagnostics” (INSTITUT PASTEUR, priority 1988, dated 1990)
